Where two headings read alike, the source gives them in different places.
Key:
[1] = tested on: Escherichia coli (E. coli); assay: In vitro antibacterial activity, progressive double dilutions, culture turbidity; assay type: cell-based
Source text: (§1) The growth of bacteria was estimated by measuring the turbidity of the culture, as previously reported. […] The pH of the media was adjusted to 7.0.

[2] = tested on: Staphylococcus aureus (S. aureus); assay: as above; assay type: cell-based
Source text: as §1

[3] = tested on: Bacillus cereus (B. cereus); assay: as above; assay type: cell-based
Source text: as §1

[4] = tested on: Bacillus subtilis (B. subtilis); assay: as above; assay type: cell-based
Source text: as §1

[5] = tested on: calf-thymus (CT) DNA; assay: DNA viscosity measurements; assay type: binding
Protocol: All measurements were performed at room temperature. The obtained data are presented as (η/η0)^1/3 versus r where η is the viscosity of DNA in the presence of the studied compound, η0 is the viscosity of DNA alone in buffer solution and r = [complex]/[DNA]. DNA-length (L/L0), according to the equation L/L0 = (η/η0)^1/3. […] In the particular case of intercalation, an increase in the separation distance of the DNA-base pairs can be induced in order to host the inserting compound resulting in an increase of the relative DNA-viscosity. On the other hand, when a compound binds to DNA-grooves via non-classic intercalation (i.e., electrostatic interaction or external groove-binding) the DNA-viscosity may show a slight decrease or remain unchanged, because of a bend of DNA double helix which leads to shortening of DNA length.

[6] = tested on: Hup-T3 pancreatic adenocarcinoma cells; assay: MTT cytostatic/cytotoxic assay; assay type: cell-based, human; details: Hup-T3, 48 h treatment
Protocol: (§2) The cell lines were obtained from the American Type of Culture collection (ATCC), except HuP-T3 which was kindly donated from University of Crete, School of Medicine, Greece, and were grown in different culture medium according to the instructions.
(§3) For the determination of the cell viability, it was employed the MTT assay. Cells were plated in 96-well plate at a density of 1 × 10^4 cells/mL per well and maintained for 72 h at 37 °C in a 5% CO2 incubator and grown as monolayers. […] The viability of cultured cells was estimated by a (3-(4,5-imethylthiazol-2-yl)-2,5-diphenyltetrazolium bromide (MTT) metabolic assay as previously described.
(§4) In brief, MTT (Sigma, St Louis, Missouri, USA) was dissolved in PBS in a concentration of 5 mg/mL, filter sterilized, and stored at 4 °C. Then, 50 μL of stock solution was added to each culture and incubated for 3 h at 37 °C. Formazan crystals were solubilized by DMSO (100 μL). Absorbance of the converted dye was measured at a wavelength of 540 nm on ELISA reader (VersaMax Microplate Reader Orleans, USA). […] Using seven absorbance measurements [time 24 h (Ct24), control growth 72 h (Ct72), and test growth in the presence of drug at five concentration levels (Tt72x)], the percentage of growth was calculated at each level of the drug concentrations. The percentage growth inhibition was calculated according to National Cancer Institute (NCI) as: {[(Tt72x) − (Ct24)]/[(Ct72) − (Ct24)]} × 100 for concentrations for which Tt72x>Ct24 and {(Tt72x) − (Ct24)]/(Ct24)} × 100 for concentrations for which Tt72x<Ct24. […] All experiments were carried out in triplicate. A significant difference was presumed to exist when p ≤ 0.05 (two tailed paired t test).

[7] = tested on: PC3 prostate adenocarcinoma cells; assay: MTT cytostatic/cytotoxic assay; assay type: cell-based, human; details: PC3, 48 h treatment
Protocol: as §2, §3, §4

[8] = value in parentheses, mean ± SD, read-out: IC50

[Ag(mtdztH)(dppe)(NO3)]n [Compound 4]
IC50 [1]: 11 µg/mL
MIC ([1]; ampicillin reference against E.coli (BL21)): higher than 100 μg/mL
MIC ([1]; value in parentheses): 91 μΜ
IC50 [1, 8]: 15.4 ± 2.4 µM
IC50 [2]: 8 µg/mL
MIC [2]: 50 µg/mL
MIC ([2]; value in parentheses): 45 μΜ
IC50 [2, 8]: 7.3 ± 1.6 µM
IC50 [3]: 5 µg/mL
MIC [3]: 50 µg/mL
MIC ([3]; value in parentheses): 45 μΜ
IC50 [3, 8]: 4.6 ± 0.7 µM
IC50 [4]: 4.9 µg/mL
MIC [4]: 30 µg/mL
MIC ([4]; value in parentheses): 27 μΜ
IC50 [4, 8]: 4.5 ± 0.8 µM
relative DNA viscosity change ([5]; higher concentrations, r > 0.15): moderate increase
relative DNA viscosity change ([5]; low concentrations, up to r = 0.15): remained almost unchanged
IC50 ([6]; cytocidal/cytotoxic): 3 ± 0.04 µM
GI50 ([6]; growth inhibition): 0.4 ± 0.02 µM
TGI ([6]; total growth inhibition): 0.9±0.04 μΜ
LC50 ([7]; cytocidal/cytotoxic, read-out: IC50 (the source's name)): 3.6 ± 0.05 µM
GI50 ([7]; growth inhibition): 0.6 ± 0.03 µM
TGI ([7]; total growth inhibition): 1.6±0.03 μΜ
